Measurements: US20240182407A1, “QUINOLINE COMPOUND SALT OR CRYSTAL FORM, PREPARATION METHOD THEREFOR, AND APPLICATION THEREOF” (Nanjing Zenshine Pharmaceuticals Co., Ltd., priority 2021, published 2024)
Values after ≈ are worked out from the molar mass of the structure shown.

What was measured:
[1] = Solubility in organic solvents; type: physicochemical; conditions: organic solvent or mixture
Excerpt: Therefore, these two solvents were taken, for example, as good solvents and subjected to anti-solvent precipitation experiments.

[2] = target: T1, PI3Kα (p110α/p85α) (Homo sapiens, UniProt P42336); assay: ADP-Glo kinase inhibition, PI3Kα; conditions: read-out: IC50 PI3Kα Biochemical
T1 construct: purchased Invitrogen PV4788
T1 sequence (P42336 whole entry): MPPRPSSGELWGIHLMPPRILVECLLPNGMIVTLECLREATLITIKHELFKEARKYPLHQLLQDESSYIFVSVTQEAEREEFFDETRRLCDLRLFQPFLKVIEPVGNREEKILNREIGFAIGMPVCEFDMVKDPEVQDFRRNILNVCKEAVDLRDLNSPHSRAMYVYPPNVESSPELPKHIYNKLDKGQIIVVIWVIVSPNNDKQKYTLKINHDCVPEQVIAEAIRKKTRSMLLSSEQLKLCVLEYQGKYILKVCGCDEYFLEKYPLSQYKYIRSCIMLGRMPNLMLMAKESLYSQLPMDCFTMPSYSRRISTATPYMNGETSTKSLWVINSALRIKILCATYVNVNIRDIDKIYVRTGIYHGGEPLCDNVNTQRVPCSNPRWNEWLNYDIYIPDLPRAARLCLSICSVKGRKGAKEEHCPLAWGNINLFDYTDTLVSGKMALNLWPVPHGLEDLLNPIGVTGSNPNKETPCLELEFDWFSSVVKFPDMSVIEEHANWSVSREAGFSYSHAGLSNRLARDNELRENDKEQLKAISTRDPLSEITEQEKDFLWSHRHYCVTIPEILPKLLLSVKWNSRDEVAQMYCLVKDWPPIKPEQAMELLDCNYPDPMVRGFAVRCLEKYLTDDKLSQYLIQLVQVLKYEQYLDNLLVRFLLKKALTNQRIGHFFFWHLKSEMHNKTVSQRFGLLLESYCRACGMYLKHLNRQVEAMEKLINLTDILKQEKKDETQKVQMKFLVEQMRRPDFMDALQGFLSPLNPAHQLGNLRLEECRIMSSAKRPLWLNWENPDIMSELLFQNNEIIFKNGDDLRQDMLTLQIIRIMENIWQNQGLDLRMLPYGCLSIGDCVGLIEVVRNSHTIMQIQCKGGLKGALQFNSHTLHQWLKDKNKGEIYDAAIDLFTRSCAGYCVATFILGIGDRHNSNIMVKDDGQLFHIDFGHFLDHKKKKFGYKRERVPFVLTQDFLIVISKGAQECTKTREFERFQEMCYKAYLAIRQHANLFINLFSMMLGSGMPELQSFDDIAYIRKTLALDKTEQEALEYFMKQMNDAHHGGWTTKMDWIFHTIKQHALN
T1 sequence (P27986 whole entry partner): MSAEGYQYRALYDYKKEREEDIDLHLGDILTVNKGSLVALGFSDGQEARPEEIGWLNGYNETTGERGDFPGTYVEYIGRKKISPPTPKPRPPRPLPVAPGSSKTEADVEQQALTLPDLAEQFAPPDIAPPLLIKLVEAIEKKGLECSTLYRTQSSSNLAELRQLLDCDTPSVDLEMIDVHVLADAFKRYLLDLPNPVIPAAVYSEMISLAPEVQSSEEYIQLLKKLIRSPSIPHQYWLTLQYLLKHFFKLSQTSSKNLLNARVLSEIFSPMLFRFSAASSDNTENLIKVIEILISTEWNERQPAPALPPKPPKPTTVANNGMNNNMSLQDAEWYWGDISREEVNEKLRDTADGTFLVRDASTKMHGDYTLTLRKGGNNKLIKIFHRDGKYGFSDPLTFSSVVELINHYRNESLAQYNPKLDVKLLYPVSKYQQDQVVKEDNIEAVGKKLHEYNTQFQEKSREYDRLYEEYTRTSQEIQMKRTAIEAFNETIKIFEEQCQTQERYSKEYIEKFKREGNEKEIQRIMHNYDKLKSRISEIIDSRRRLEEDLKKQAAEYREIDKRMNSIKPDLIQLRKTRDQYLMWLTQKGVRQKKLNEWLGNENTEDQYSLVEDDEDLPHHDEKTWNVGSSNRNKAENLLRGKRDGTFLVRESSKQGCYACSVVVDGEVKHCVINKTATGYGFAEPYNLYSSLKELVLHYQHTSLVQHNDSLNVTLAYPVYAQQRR
Experimental: In Example 7, the inhibitory effects of Sample 6 prepared in Example 6 above on kinases PI3Kα, PI3Kβ, PI3Kγ and PI3Kδ were tested.
The kinases used in the experiment were respectively purchased from: • PI3Kα (p110α/p85α), purchased from Invitrogen, under Cat. No. PV4788; • PI3Kβ (p110β), purchased from eurofins, under Cat. No. 14-603M; • PI3Kδ (p110δ/p85a), purchased from Invitrogen, under Cat. No. PV6452; and • PI3Kγ (p110γ), purchased from Invitrogen, under Cat. No. PR8641C. • Firstly, a 1× kinase buffer solution was prepared, which comprised: • 50 mM HEPES, pH 7.5 • 3 mM MgCl2 • 1 mM EGTA • 100 mM NaCl • 0.03% CHAPS • 2 mM DTT
On kinases PI3Kα, PI3Kβ and PI3Kγ, the final detection concentration of the compound was 10 μM. 100× concentration was prepared, i.e., 1000 μM. 90 μL of 100% DMSO was added to the second well in row A on a 96-well plate, 10 μL of a 10 mM compound solution was then added, and 3-fold serial dilution was made to obtain a total of 10 concentrations.
50 μL of 100% DMSO was transferred to two empty wells as Max well and Min well, respectively.
50 nL of the compound was transferred into a 384-well plate using ECHO550.
Preparation of 2× kinase solution: the kinase was added to a 1× kinase buffer to prepare a 2× enzyme solution. […]
Finally, the chemiluminescence values were read from Envision 2104 Multi-label Reader and subjected to curve fitting, and IC50 was calculated.

[3] = target: T2, PI3Kα (Mus musculus, UniProt P42337); assay: Akt phosphorylation in C2Cl2 cells stimulated by IGF-1 (AlphaLISA); conditions: phosphorylation of Akt, C2C12 cells, read-out: IC50 PI3Kα Cell-based
T2 construct: host or cells: C2C12 cells
T2 sequence (P42337 whole entry): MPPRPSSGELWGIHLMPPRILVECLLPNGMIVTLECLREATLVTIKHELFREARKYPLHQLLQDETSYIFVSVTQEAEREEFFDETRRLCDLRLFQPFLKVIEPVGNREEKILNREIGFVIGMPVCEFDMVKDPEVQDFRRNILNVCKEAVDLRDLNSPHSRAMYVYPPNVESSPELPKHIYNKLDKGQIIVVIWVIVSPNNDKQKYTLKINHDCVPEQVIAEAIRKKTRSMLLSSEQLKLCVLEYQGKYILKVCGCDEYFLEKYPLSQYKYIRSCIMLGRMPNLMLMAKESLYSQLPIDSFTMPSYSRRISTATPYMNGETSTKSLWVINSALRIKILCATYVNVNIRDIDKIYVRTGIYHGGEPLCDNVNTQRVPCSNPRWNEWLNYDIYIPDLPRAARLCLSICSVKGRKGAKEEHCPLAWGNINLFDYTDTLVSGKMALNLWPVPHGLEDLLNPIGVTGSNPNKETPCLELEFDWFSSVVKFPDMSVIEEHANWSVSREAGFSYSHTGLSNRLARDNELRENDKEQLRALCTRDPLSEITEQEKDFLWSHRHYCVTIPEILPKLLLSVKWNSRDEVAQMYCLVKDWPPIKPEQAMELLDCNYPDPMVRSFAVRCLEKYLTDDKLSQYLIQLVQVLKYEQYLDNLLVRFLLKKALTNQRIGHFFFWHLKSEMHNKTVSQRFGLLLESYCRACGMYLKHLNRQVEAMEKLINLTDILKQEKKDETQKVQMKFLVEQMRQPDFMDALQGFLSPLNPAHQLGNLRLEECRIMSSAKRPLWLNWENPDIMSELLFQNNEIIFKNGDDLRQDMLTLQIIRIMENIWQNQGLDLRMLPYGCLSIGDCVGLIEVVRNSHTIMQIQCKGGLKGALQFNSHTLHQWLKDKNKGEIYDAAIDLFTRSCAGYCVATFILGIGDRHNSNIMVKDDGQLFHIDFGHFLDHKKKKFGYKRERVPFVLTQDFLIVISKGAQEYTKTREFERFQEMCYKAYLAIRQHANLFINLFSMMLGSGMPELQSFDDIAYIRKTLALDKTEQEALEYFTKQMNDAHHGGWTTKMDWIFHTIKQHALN
T2 sequence (P26450 whole entry partner): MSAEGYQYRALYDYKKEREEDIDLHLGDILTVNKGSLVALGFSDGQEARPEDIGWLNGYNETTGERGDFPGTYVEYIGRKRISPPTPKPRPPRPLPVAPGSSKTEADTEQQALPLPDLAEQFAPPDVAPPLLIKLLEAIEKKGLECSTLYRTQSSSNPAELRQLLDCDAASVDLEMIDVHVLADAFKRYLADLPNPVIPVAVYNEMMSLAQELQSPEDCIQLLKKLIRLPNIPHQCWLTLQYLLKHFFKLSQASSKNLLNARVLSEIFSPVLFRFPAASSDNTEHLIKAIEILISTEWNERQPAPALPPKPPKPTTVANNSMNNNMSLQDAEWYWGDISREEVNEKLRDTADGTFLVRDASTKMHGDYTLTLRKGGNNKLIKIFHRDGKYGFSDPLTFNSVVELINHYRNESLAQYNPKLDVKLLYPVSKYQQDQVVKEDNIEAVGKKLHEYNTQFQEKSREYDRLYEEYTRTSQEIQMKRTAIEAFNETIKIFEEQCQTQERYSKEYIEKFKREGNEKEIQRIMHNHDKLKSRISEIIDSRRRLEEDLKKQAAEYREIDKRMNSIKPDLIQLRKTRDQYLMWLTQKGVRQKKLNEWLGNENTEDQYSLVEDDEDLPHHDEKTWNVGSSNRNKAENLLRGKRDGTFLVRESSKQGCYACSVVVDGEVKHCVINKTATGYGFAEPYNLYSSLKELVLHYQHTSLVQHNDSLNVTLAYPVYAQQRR
Experimental: (§1) In addition, taking Sample 6 as an example, the inhibitory effects thereof on PI3Kα, PI3Kβ, PI3Kγ and PI3Kδ in corresponding cells were determined. The activity of PI3Kα was detected by the phosphorylation level of Akt in C2Cl2 cells stimulated by IGF-1, the activity of PI3Kβ was detected by the phosphorylation level of Akt in PC-3 cells stimulated by LPA, the activity of PI3Kγ was detected by the phosphorylation level of Akt in Raw264.7 cells stimulated by c5α, and the activity of PI3Kδ was detected by the phosphorylation level of Akt in Raji cells stimulated by IgM. The phosphorylation level of Akt in cells was determined by means of AlphaLISA technique from PerkinElemer.
(§2) The C2C12 cells, PC-3 cells, Raw264.7 cells and Raji cells were all purchased from ATCC.

[4] = tested on: SU-DHL-6; assay: Proliferation of lymphoma cell line in vitro, SU-DHL-6; type: cell-based; conditions: Homo sapiens, read-out: absolute IC50 (AbsIC50), proliferation
[5] = tested on: mouse breast cancer 4T1; assay: Mouse breast cancer 4T1 subcutaneous transplantation tumor model; type: in vivo
Excerpt: WT cell subcutaneous transplantation tumor model.

[6] = Solubility in simulated gastrointestinal fluids (SGF, FeSSIF, FaSSIF) at 37° C.; type: physicochemical; conditions: for Solubility: 37° C.; for Solubility / pH of filtrate: listed as Sample 5; for solubility at 30 min / solubility at 2 h / solubility at 24 h: 37 °C, thermodynamic from solid
Experimental: The solubilities of Compound A and p-toluenesulfonate (Sample 5, crystal form I) in simulated gastrointestinal fluids (SGF, FeSSIF and FaSSIF) at 37° C. were tested.
About 7.5 mg of Compound A and p-toluenesulfonate were separately added to 1.5 mL of three biological vehicles to prepare suspensions. All the suspensions were placed in a shaker at 37° C. and shaken at 200 rpm for 24 h, and about 0.5 mL was sampled separately at 0.5 h, 2 h and 24 h for filtration. The obtained filtrates were subjected to HPLC analysis and pH measurement, and the filter cakes were respectively measured by XRPD.

[7] = tested on: SU-DHL-4; assay: Proliferation of lymphoma cell line in vitro, SU-DHL-4; type: cell-based; conditions: Homo sapiens, read-out: absolute IC50 (AbsIC50), proliferation
[8] = target: T3, PI3Kδ (Homo sapiens, UniProt O00329); assay: Akt phosphorylation in Raji cells stimulated by IgM (AlphaLISA); conditions: phosphorylation of Akt, read-out: IC50 PI3Kδ Cell-based
T3 construct: host or cells: Raji cells
T3 sequence (O00329 whole entry): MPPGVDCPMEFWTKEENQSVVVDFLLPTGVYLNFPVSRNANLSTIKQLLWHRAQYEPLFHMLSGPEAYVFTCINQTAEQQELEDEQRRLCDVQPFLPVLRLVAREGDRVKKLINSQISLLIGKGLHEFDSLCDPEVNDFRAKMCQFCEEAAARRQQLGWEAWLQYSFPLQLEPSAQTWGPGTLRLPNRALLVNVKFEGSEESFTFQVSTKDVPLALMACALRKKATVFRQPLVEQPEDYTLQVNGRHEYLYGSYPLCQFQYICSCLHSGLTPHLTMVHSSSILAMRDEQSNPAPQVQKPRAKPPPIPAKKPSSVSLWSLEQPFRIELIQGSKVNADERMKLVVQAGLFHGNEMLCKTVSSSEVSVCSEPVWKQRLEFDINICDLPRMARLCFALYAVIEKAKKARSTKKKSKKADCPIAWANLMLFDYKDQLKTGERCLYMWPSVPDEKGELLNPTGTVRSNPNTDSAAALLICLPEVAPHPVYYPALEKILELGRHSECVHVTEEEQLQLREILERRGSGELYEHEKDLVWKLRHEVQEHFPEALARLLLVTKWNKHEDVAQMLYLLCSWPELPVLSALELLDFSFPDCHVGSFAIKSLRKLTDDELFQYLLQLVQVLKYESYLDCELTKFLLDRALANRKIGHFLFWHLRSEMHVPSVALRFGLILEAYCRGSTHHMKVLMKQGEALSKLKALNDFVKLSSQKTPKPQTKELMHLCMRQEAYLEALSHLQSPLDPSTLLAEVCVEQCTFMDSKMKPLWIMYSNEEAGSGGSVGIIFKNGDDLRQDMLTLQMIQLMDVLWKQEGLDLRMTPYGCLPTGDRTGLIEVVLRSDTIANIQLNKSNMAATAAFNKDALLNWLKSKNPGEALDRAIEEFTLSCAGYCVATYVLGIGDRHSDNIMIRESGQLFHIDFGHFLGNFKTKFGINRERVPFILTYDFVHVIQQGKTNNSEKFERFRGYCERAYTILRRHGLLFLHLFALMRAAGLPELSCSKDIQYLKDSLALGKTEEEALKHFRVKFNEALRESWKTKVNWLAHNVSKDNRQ
T3 sequence (P27986 whole entry partner): as the sequence (P27986 whole entry partner) above
Experimental: as §1, §2

[9] = tested on: WSU-DLCL-2; assay: Proliferation of lymphoma cell line in vitro, WSU-DLCL-2; type: cell-based; conditions: Homo sapiens, WSUDLCL2, read-out: absolute IC50 (AbsIC50), proliferation

Molecule C[C@H](Nc1nc(N)nc(N)c1C#N)c1cc2ccc(F)cc2nc1-c1ccccn1 [p-toluenesulfonate of Compound A] has a Solubility ([1]; methanol, read-out: solubility in methanol) greater than 24000 µg/mL, a Solubility ([1]; tetrahydrofuran, read-out: solubility in tetrahydrofuran) greater than 11600 µg/mL and an IC50 [2] of 117 nM. The IC50 [3] was 3520 nM, the IC50 [4] was less than 100 nM and the “effect on tumor volume growth” value [5] was “significant inhibitory effect”. For the same molecule, the Solubility ([6]; FaSSIF (pH 6.52), 30 min) was 570 µg/mL (≈ 1.42 mM), the Solubility ([6]; FaSSIF (pH 6.52), 2 h) was 560 µg/mL (≈ 1.4 mM) and the Solubility ([6]; FaSSIF (pH 6.52), 24 h) was 550 µg/mL (≈ 1.37 mM). The pH of filtrate ([6]; FaSSIF (pH 6.52), 0.5 h) was 6.27, the pH of filtrate ([6]; FaSSIF (pH 6.52), 2 h) was 6.10 and the pH of filtrate ([6]; FaSSIF (pH 6.52), 24 h) was 5.38. For the same molecule, the pH of filtrate ([6]; FeSSIF (pH 4.99), 0.5 h) was 4.81, the pH of filtrate ([6]; FeSSIF (pH 4.99), 2 h) was 4.80 and the pH of filtrate ([6]; FeSSIF (pH 4.99), 24 h) was 4.69. It also gave a solubility at 30 min ([6]; FeSSIF, pH 4.99, fessif, FeSSIF (pH 4.99), 30 min) of 1310 µg/mL (≈ 3.27 mM), a solubility at 2 h ([6]; FeSSIF, pH 4.99, fessif, FeSSIF (pH 4.99), 2 h) of 2740 µg/mL (≈ 6.84 mM) and a solubility at 24 h ([6]; FeSSIF, pH 4.99, fessif, FeSSIF (pH 4.99), 24 h) of 3570 µg/mL (≈ 8.92 mM). For the same molecule, the pH of filtrate ([6]; SGF (pH 1.21), 0.5 h) was 1.05, the pH of filtrate ([6]; SGF (pH 1.21), 2 h) was 1.10 and the pH of filtrate ([6]; SGF (pH 1.21), 24 h) was 1.11. It also gave a solubility at 30 min ([6]; SGF, pH 1.21, simulated gastric fluid, SGF (pH 1.21), 30 min) greater than 5440 µg/mL, a solubility at 2 h ([6]; SGF, pH 1.21, simulated gastric fluid, SGF (pH 1.21), 2 h) greater than 5400 µg/mL and a solubility at 24 h ([6]; SGF, pH 1.21, simulated gastric fluid, SGF (pH 1.21), 24 h) greater than 5350 µg/mL. It also gave an IC50 [7] of less than 100 nM, an IC50 [8] of 0.95 nM and an IC50 [9] of less than 100 nM.
